# Source: BindingDB's records for doi:10.1016/j.bmcl.2007.08.017 (Johnson & Johnson Pharmaceutical Research and Development, 2007)
# Assay: Binding affinity at human histamine H3
row,Compound,Ki [µM]
1,"CSc1ccc(C2CN(C)Cc3cccc(Oc4ccnc(CN5CCCCC5)c4)c32)cc1 (configuration not stated) [2-methyl-4-(4-(methylthio)phenyl)-5-(2-(piperidin-1-ylmethyl)pyridin-4-yloxy)-1,2,3,4-tetrahydroisoquinoline]",0.265
2,"CSc1ccc(C2CN(C)Cc3cccc(Oc4cccc(CN5CCCCC5)c4)c32)cc1 (configuration not stated) [2-methyl-4-(4-(methylthio)phenyl)-5-(3-(piperidin-1-ylmethyl)phenoxy)-1,2,3,4-tetrahydroisoquinoline]",0.253
3,"CSc1ccc(C2CN(C)Cc3cccc(Oc4cncc(CN5CCCCC5)c4)c32)cc1 (configuration not stated) [2-methyl-4-(4-(methylthio)phenyl)-5-(5-(piperidin-1-ylmethyl)pyridin-3-yloxy)-1,2,3,4-tetrahydroisoquinoline]",0.511
4,"CSc1ccc(C2CN(C)Cc3cc(Oc4ccnc(CN5CCCCC5)c4)ccc32)cc1 (configuration not stated) [2-methyl-4-(4-(methylthio)phenyl)-7-(2-(piperidin-1-ylmethyl)pyridin-4-yloxy)-1,2,3,4-tetrahydroisoquinoline]",0.323
5,"CSc1ccc(C2CN(C)Cc3cc(Oc4nc(CN5CCOCC5)cs4)ccc32)cc1 (configuration not stated) [2-methyl-4-(4-(methylthio)phenyl)-7-(4-(morpholinomethyl)thiazol-2-yloxy)-1,2,3,4-tetrahydroisoquinoline]",0.201
6,"CSc1ccc(C2CN(C)Cc3cc(Oc4ccc(CN5CCCCC5)cc4)ccc32)cc1 (configuration not stated) [2-methyl-4-(4-(methylthio)phenyl)-7-(4-(piperidin-1-ylmethyl)phenoxy)-1,2,3,4-tetrahydroisoquinoline]",0.0227
7,"CSc1ccc(C2CN(C)Cc3cc(Oc4cc(CN5CCCCC5)ccn4)ccc32)cc1 (configuration not stated) [2-methyl-4-(4-(methylthio)phenyl)-7-(4-(piperidin-1-ylmethyl)pyridin-2-yloxy)-1,2,3,4-tetrahydroisoquinoline]",0.0343
8,"CSc1ccc(C2CN(C)Cc3cc(Oc4nc(CN5CCCCC5)cs4)ccc32)cc1 (configuration not stated) [2-methyl-4-(4-(methylthio)phenyl)-7-(4-(piperidin-1-ylmethyl)thiazol-2-yloxy)-1,2,3,4-tetrahydroisoquinoline]",0.0207
9,"CSc1ccc(C2CN(C)Cc3cc(Oc4ccc(CN5CCOCC5)cn4)ccc32)cc1 (configuration not stated) [2-methyl-4-(4-(methylthio)phenyl)-7-(5-(morpholinomethyl)pyridin-2-yloxy)-1,2,3,4-tetrahydroisoquinoline]",0.26
10,"CSc1ccc(C2CN(C)Cc3cc(Oc4ccc(CN5CCCCC5)cn4)ccc32)cc1 (configuration not stated) [2-methyl-4-(4-(methylthio)phenyl)-7-(5-(piperidin-1-ylmethyl)pyridin-2-yloxy)-1,2,3,4-tetrahydroisoquinoline]",0.0082
11,"CSc1ccc(C2CN(C)Cc3cc(Oc4cncc(CN5CCCCC5)c4)ccc32)cc1 (configuration not stated) [2-methyl-4-(4-(methylthio)phenyl)-7-(5-(piperidin-1-ylmethyl)pyridin-3-yloxy)-1,2,3,4-tetrahydroisoquinoline]",0.109
12,"CSc1ccc(C2CN(C)Cc3cc(Oc4ncc(CN5CCCCC5)s4)ccc32)cc1 (configuration not stated) [2-methyl-4-(4-(methylthio)phenyl)-7-(5-(piperidin-1-ylmethyl)thiazol-2-yloxy)-1,2,3,4-tetrahydroisoquinoline]",0.0207
13,"CSc1ccc(C2CN(C)Cc3cc(Oc4cccc(CN5CCCCC5)n4)ccc32)cc1 (configuration not stated) [2-methyl-4-(4-(methylthio)phenyl)-7-(6-(piperidin-1-ylmethyl)pyridin-2-yloxy)-1,2,3,4-tetrahydroisoquinoline]",0.051
14,"CSc1ccc(C2CN(C)Cc3cc(Oc4ccc(CN5CCCCC5)nc4)ccc32)cc1 (configuration not stated) [2-methyl-4-(4-(methylthio)phenyl)-7-(6-(piperidin-1-ylmethyl)pyridin-3-yloxy)-1,2,3,4-tetrahydroisoquinoline]",0.0243
15,"COc1ccc(C2CN(C)Cc3cc(OCCCN4CCCCC4)ncc32)cc1 (configuration not stated) [4-(4-methoxyphenyl)-2-methyl-7-(3-(piperidin-1-yl)propoxy)-1,2,3,4-tetrahydro-2,6-naphthyridine]",0.012
16,"CSc1ccc(C2CN(C)Cc3cc(Oc4ccc(CN5CCC(F)CC5)cn4)ccc32)cc1 (configuration not stated) [7-(5-((4-fluoropiperidin-1-yl)methyl)pyridin-2-yloxy)-2-methyl-4-(4-(methylthio)phenyl)-1,2,3,4-tetrahydroisoquinoline]",0.11
17,"CN(C)CCC(Oc1ccccc1)c1ccc(OCCCN2CCCCC2)cc1 (configuration not stated) [N,N-dimethyl-3-phenoxy-3-(4-(3-(piperidin-1-yl)propoxy)phenyl)propan-1-amine]",0.00072
